Results from patent US11116735B2, “Use of substituted benzylideneguanidine derivatives as synergists for polymyxin antibiotics” (GUANGZHOU INSIGHTER BIOTECHNOLOGY CO., LTD., priority 2015, dated 2021).

Legend:
[1] = test system: E. coli 3Y-9; assay: MIC by doubling dilution, colistin sulfate-susceptible E. coli 3Y-9; format: cell-based, Escherichia coli; settings: for In vitro minimum inhibitory concentration (MIC) of the substance alone: E. coli 3Y-9, colistin sulfate-susceptible, derivatives as hydrochlorides; for In vitro MIC of colistin sulfate in the presence of the substituted benzylideneguanidine derivative: E. coli 3Y-9, culture comprised 20.0 ppm of the derivative (hydrochloride), colistin sulfate serially diluted
[2] = test system: E. coli 2S-19; assay: MIC by doubling dilution, colistin sulfate-susceptible E. coli 2S-19; format: cell-based, Escherichia coli; settings: for In vitro minimum inhibitory concentration (MIC) of the substance alone: E. coli 2S-19, colistin sulfate-susceptible, derivatives as hydrochlorides; for In vitro MIC of colistin sulfate in the presence of the substituted benzylideneguanidine derivative: E. coli 2S-19, culture comprised 20.0 ppm of the derivative (hydrochloride), colistin sulfate serially diluted
[3] = test system: E. coli 5W-7; assay: MIC by doubling dilution, colistin sulfate-susceptible E. coli 5W-7; format: cell-based, Escherichia coli; settings: for In vitro minimum inhibitory concentration (MIC) of the substance alone: E. coli 5W-7, colistin sulfate-susceptible, derivatives as hydrochlorides; for In vitro MIC of colistin sulfate in the presence of the substituted benzylideneguanidine derivative: E. coli 5W-7, culture comprised 20.0 ppm of the derivative (hydrochloride), colistin sulfate serially diluted
[4] = test system: E. coli 3B-24; assay: MIC by doubling dilution, colistin sulfate-susceptible E. coli 3B-24; format: cell-based, Escherichia coli; settings: for In vitro minimum inhibitory concentration (MIC) of the substance alone: E. coli 3B-24, colistin sulfate-susceptible, derivatives as hydrochlorides; for In vitro MIC of colistin sulfate in the presence of the substituted benzylideneguanidine derivative: E. coli 3B-24, culture comprised 20.0 ppm of the derivative (hydrochloride), colistin sulfate serially diluted
[5] = test system: E. coli 2G-7; assay: MIC by doubling dilution, colistin sulfate-resistant E. coli 2G-7; settings: for In vitro minimum inhibitory concentration (MIC) of the substance alone: E. coli 2G-7, colistin sulfate-resistant, derivatives as hydrochlorides; for In vitro MIC of colistin sulfate in the presence of the substituted benzylideneguanidine derivative: E. coli 2G-7, resistant, culture comprised 20.0 ppm of the derivative (hydrochloride)
Method: (§1) In vitro minimum inhibitory concentrations of colistin sulfate against the strains where the cultures respectively comprised 20.0 ppm of the substituted benzylideneguanidine derivatives were also measured.

[6] = test system: E. coli 5F-1; assay: MIC by doubling dilution, colistin sulfate-resistant E. coli 5F-1; settings: for In vitro minimum inhibitory concentration (MIC) of the substance alone: E. coli 5F-1, colistin sulfate-resistant, derivatives as hydrochlorides; for In vitro MIC of colistin sulfate in the presence of the substituted benzylideneguanidine derivative: E. coli 5F-1, resistant, culture comprised 20.0 ppm of the derivative (hydrochloride)
Method: as §1

[7] = test system: E. coli 4D-6; assay: MIC by doubling dilution, colistin sulfate-resistant E. coli 4D-6; settings: for In vitro minimum inhibitory concentration (MIC) of the substance alone: E. coli 4D-6, colistin sulfate-resistant, derivatives as hydrochlorides; for In vitro MIC of colistin sulfate in the presence of the substituted benzylideneguanidine derivative: E. coli 4D-6, resistant, culture comprised 20.0 ppm of the derivative (hydrochloride)
Method: as §1

[8] = test system: E. coli 3H-4; assay: MIC by doubling dilution, colistin sulfate-resistant E. coli 3H-4; settings: for In vitro minimum inhibitory concentration (MIC) of the substance alone: E. coli 3H-4, colistin sulfate-resistant, derivatives as hydrochlorides; for In vitro MIC of colistin sulfate in the presence of the substituted benzylideneguanidine derivative: E. coli 3H-4, resistant, culture comprised 20.0 ppm of the derivative (hydrochloride)
Method: as §1

Structure (SMILES) | In vitro minimum inhibitory concentration (MIC) of the substance alone [1] [ppm] | In vitro MIC of colistin sulfate in the presence of the substituted benzylideneguanidine derivative [1] [ppm] | In vitro minimum inhibitory concentration (MIC) of the substance alone [2] [ppm] | In vitro MIC of colistin sulfate in the presence of the substituted benzylideneguanidine derivative [2] [ppm] | In vitro minimum inhibitory concentration (MIC) of the substance alone [3] [ppm] | In vitro MIC of colistin sulfate in the presence of the substituted benzylideneguanidine derivative [3] [ppm] | In vitro minimum inhibitory concentration (MIC) of the substance alone [4] [ppm] | In vitro MIC of colistin sulfate in the presence of the substituted benzylideneguanidine derivative [4] [ppm] | In vitro minimum inhibitory concentration (MIC) of the substance alone [5] [ppm] | In vitro MIC of colistin sulfate in the presence of the substituted benzylideneguanidine derivative [5] [ppm] | In vitro minimum inhibitory concentration (MIC) of the substance alone [6] [ppm] | In vitro MIC of colistin sulfate in the presence of the substituted benzylideneguanidine derivative [6] [ppm] | In vitro minimum inhibitory concentration (MIC) of the substance alone [7] [ppm] | In vitro MIC of colistin sulfate in the presence of the substituted benzylideneguanidine derivative [7] [ppm] | In vitro minimum inhibitory concentration (MIC) of the substance alone [8] [ppm] | In vitro MIC of colistin sulfate in the presence of the substituted benzylideneguanidine derivative [8] [ppm]
NC(=NN=Cc1ccc(C(F)(F)F)cc1)NN=Cc1ccc(C(F)(F)F)cc1 [Compound 14] | >800 | 1.00 | >800 | 1.00 | >800 | 0.50 | >800 | 1.00 | >800 | 16 | >800 | 32 | >800 | 32 | >800 | 8
N=C(NN=Cc1ccc([N+](=O)[O-])cc1)NN=Cc1ccc([N+](=O)[O-])cc1 [Compound 15] | >800 | 1.00 | >800 | 1.00 | >800 | 0.50 | >800 | 1.00 | >800 | 4 | >800 | 8 | >800 | 16 | >800 | 4
N=C(NN=Cc1ccc(OC(F)(F)F)cc1)NN=Cc1ccc(OC(F)(F)F)cc1 [Compound 16] | >800 | 2.00 | >800 | 1.00 | >800 | 0.50 | >800 | 1.00 | >800 | 8 | >800 | 16 | >800 | 32 | >800 | 8
